Experimental findings from PubChem BioAssay (NCI) are described below.

Test systems include MOLT-4 leukemia; SF-295 CNS; RPMI-8226 leukemia; DU-145 prostate; COLO 205 colon; NCI-H460 lung; MDA-MB-435; SK-MEL-5 melanoma; OVCAR-4 ovarian; A549 NSCLC.
Common to all, as to assay: DTP human tumour cell line panel, 48 h

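Compound exposure: 48 hours, 5 concentrations, 96-well plates. Abbreviation: GI50, concentration required for 50% inhibition of growth. TGI denotes the concentration required for complete inhibition of growth.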

Take `C[C@H](N[C@H]1CCC[C@]1(O)C#Cc1ccc2c(c1)OCO2)c1ccccc1`: the TGI – broadly, the concentration giving total growth inhibition – in the assay with MOLT-4 leukemia was more than 25 µM; in the assay with SF-295 CNS, more than 25 µM; with RPMI-8226 leukemia it was 16.9 µM; in the assay on DU-145 prostate, more than 25 µM; in the assay with COLO 205 colon it was more than 25 µM; with NCI-H460 lung, more than 25 µM. The TGI in the assay on MDA-MB-435, in the assay with SK-MEL-5 melanoma, with OVCAR-4 ovarian and with A549 NSCLC was more than 25 µM throughout.
With `N#CCCOCN(CO)c1nc(N(CO)COCCC#N)nc(N(CO)COCCC#N)n1`, the TGI worked out at 50.7 µM with MOLT-4 leukemia; 43.7 µM in the assay on SF-295 CNS; 56.1 µM with RPMI-8226 leukemia; 32.3 µM in the assay with COLO 205 colon; 81.3 µM with NCI-H460 lung; 64 µM in the assay with OVCAR-4 ovarian. Besides, in the assay on A549 NSCLC, the TGI was 58.3 µM.
For the molecule `COc1cc2c(cc1OC)C1Cc3cc(OC)c(OC)cc3C(C2)O1`, the TGI in the assay with MOLT-4 leukemia, with SF-295 CNS, with RPMI-8226 leukemia, with DU-145 prostate, in the assay with COLO 205 colon and with NCI-H460 lung was more than 100 µM each time. For the same molecule, the TGI in the assay with MDA-MB-435, in the assay on OVCAR-4 ovarian and with A549 NSCLC was more than 100 µM in each case.
`CCOC(=O)C(=O)Nc1c(CC)cccc1C(C)CC` (centres undefined): the TGI in the assay with MOLT-4 leukemia, in the assay on SF-295 CNS, in the assay on RPMI-8226 leukemia, in the assay on COLO 205 colon, with NCI-H460 lung and with SK-MEL-5 melanoma was more than 100 µM throughout. Further, the TGI in the assay with OVCAR-4 ovarian and in the assay with A549 NSCLC was more than 100 µM throughout.
As to `CCCC1=C(C(=O)OCC)C(c2ccccc2OC)C(C#N)=C(N)O1` (centres undefined), the GI50 (usually the concentration at which growth is held to half of that of the control) with MOLT-4 leukemia was 26.1 µM; with SF-295 CNS it was 84 µM; in the assay on RPMI-8226 leukemia it was 13.3 µM; in the assay with DU-145 prostate it was 29.3 µM; in the assay on COLO 205 colon it was 66.3 µM; with NCI-H460 lung, 39.8 µM. Moreover, the GI50 is 46.3 µM in the assay on MDA-MB-435, 23.9 µM in the assay with SK-MEL-5 melanoma, 65.4 µM in the assay on OVCAR-4 ovarian and more than 100000 nM with A549 NSCLC. Further, the TGI in the assay with MOLT-4 leukemia was 89.8 µM; in the assay with SF-295 CNS, more than 100 µM; in the assay with RPMI-8226 leukemia, 32.2 µM; in the assay on DU-145 prostate it was more than 100 µM; in the assay with COLO 205 colon it was more than 100 µM; in the assay with NCI-H460 lung it was more than 100 µM. The TGI in the assay on MDA-MB-435 is more than 100 µM; in the assay on SK-MEL-5 melanoma, 64.7 µM; with OVCAR-4 ovarian, more than 100 µM; in the assay on A549 NSCLC it was more than 100 µM.
`Cc1c2cc[n+](C)cc2c(C)c2c1[nH]c1ccc(Cl)cc12`: the TGI in the assay with MOLT-4 leukemia is 58.4 µM; with SF-295 CNS it was 4.37 µM; in the assay with RPMI-8226 leukemia, more than 95.6 µM; in the assay on DU-145 prostate, 30.5 µM; in the assay on COLO 205 colon, 10.9 µM; in the assay on NCI-H460 lung, 54 µM. Moreover, the TGI with MDA-MB-435 is more than 64.4 µM; in the assay with SK-MEL-5 melanoma it was 5.99 µM; in the assay on OVCAR-4 ovarian, 26.5 µM; with A549 NSCLC, 4.15 µM.
`Nc1cccc2c1C1=NNC(=O)CC1C2` (centres undefined): the TGI in the assay with MOLT-4 leukemia, in the assay with SF-295 CNS, in the assay on RPMI-8226 leukemia, in the assay on COLO 205 colon, in the assay with NCI-H460 lung and in the assay with SK-MEL-5 melanoma was more than 100 µM each time. For the same molecule, the TGI with OVCAR-4 ovarian and in the assay on A549 NSCLC was more than 100 µM each time.
`O=C(NCCNc1nccc(-c2c(-c3cccc(O)c3)nc3sccn23)n1)Nc1cccc(C(F)(F)F)c1`: the GI50 is 3.6 µM in the assay with MOLT-4 leukemia; 4.16 µM in the assay with SF-295 CNS; 2.52 µM in the assay on RPMI-8226 leukemia; 5.37 µM with DU-145 prostate; 3.36 µM with COLO 205 colon; 4.79 µM in the assay on NCI-H460 lung. The GI50 is 2.04 µM in the assay with MDA-MB-435, 2.62 µM with SK-MEL-5 melanoma, 3.97 µM in the assay with OVCAR-4 ovarian and 2980 nM with A549 NSCLC. The TGI in the assay with MOLT-4 leukemia was determined as 14.6 µM; in the assay on SF-295 CNS, 29.7 µM; in the assay with RPMI-8226 leukemia it was 5.46 µM; in the assay with DU-145 prostate, 30 µM; with COLO 205 colon it was 12 µM; in the assay on NCI-H460 lung it was 20.8 µM. Moreover, the TGI was determined as 4.94 µM with MDA-MB-435, 8.43 µM in the assay on SK-MEL-5 melanoma, 14.2 µM with OVCAR-4 ovarian and 8.44 µM in the assay on A549 NSCLC.
With `COc1cc(NC(=O)CSc2nc3ccccc3c(=O)n2CCc2ccccc2)cc(OC)c1OC`, the values for the GI50 with MOLT-4 leukemia, in the assay on SF-295 CNS and with DU-145 prostate were more than 100 µM, 3.21 µM and 4.98 µM, respectively. For the same molecule, the TGI with MOLT-4 leukemia was more than 100 µM; with SF-295 CNS, 15.3 µM; in the assay with DU-145 prostate, more than 100 µM.
On to `O=C(Nc1cccc([N+](=O)[O-])c1)C(=O)C(C(=O)c1ccccc1F)C1OC(=O)C2C=CC=CC21` (centres undefined), for which the total growth inhibition concentration (TGI) in the assay on MOLT-4 leukemia, in the assay on SF-295 CNS, with RPMI-8226 leukemia, in the assay with COLO 205 colon, in the assay on NCI-H460 lung and with SK-MEL-5 melanoma was more than 100 µM each time. The TGI in the assay with OVCAR-4 ovarian and with A549 NSCLC was more than 100 µM each time.
In the case of `c1ccc(CCN2CCOCC2)nc1`, the TGI in the assay on SF-295 CNS, in the assay with RPMI-8226 leukemia, in the assay with DU-145 prostate, in the assay with COLO 205 colon, in the assay on NCI-H460 lung and in the assay on MDA-MB-435 was more than 100 µM in each case. Further, the TGI in the assay on SK-MEL-5 melanoma, in the assay with OVCAR-4 ovarian and in the assay with A549 NSCLC was more than 100 µM throughout.
On to `NC(=O)Nc1ccc(C(=O)NCCCNC(=O)c2ccc(NC(N)=O)cc2)cc1`, for which the TGI with MOLT-4 leukemia, in the assay with RPMI-8226 leukemia, in the assay on DU-145 prostate, with COLO 205 colon, in the assay with NCI-H460 lung and with MDA-MB-435 was more than 100 µM each time. In addition, the TGI in the assay on SK-MEL-5 melanoma, in the assay with OVCAR-4 ovarian and in the assay on A549 NSCLC was more than 100 µM throughout.
